According to patent US8921362B2, “6,7-dialkoxy quinazoline derivatives and methods of treating drug resistant and other tumors” (Natco Pharma Limited, priority 2008, dated 2014):

Assays:
Experiment in all cases: KinomeScan
Type in all cases: binding
Details in all cases: read-out: % Ctrl @ 10000 nM
SgK110 = target: T1, SgK110 (Homo sapiens, UniProt P0C264)
T1 construct: host or cells: T7 phage grown in E. coli (BL21-derived)
How it was run: (§1)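 In this phage-display binding screen, compound competes with immobilized ligand for the kinase fusion, and bead-bound phage, eluted after washing, is titered by qPCR.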

ALK = target: T2, ALK (Homo sapiens, UniProt Q9UM73)
T2 construct: host or cells: E. coli (BL21-derived), T7 phage lysate
How it was run: as §1

PRKD3 = target: T3, PRKD3 (Homo sapiens, UniProt O94806)
T3 construct: host or cells: T7 phage in E. coli host derived from BL21
How it was run: as §1

FRK = target: T4, FRK (Homo sapiens, UniProt P42685)
T4 construct: host or cells: T7 phage in E. coli host derived from BL21
How it was run: as §1

GSK3A = target: T5, GSK3A (Homo sapiens, UniProt P49840)
T5 construct: host or cells: T7 phage in E. coli host derived from BL21
How it was run: as §1

PAK7 = target: T6, PAK7 (Homo sapiens, UniProt Q9P286)
T6 construct: host or cells: E. coli host derived from BL21, infected with T7 phage
How it was run: as §1

ASK1 = target: T7, ASK1 (Homo sapiens, UniProt Q99683)
T7 construct: host or cells: E. coli host derived from BL21
How it was run: as §1

ULK3 = target: T8, ULK3 (Homo sapiens, UniProt Q6PHR2)
T8 construct: host or cells: E. coli host derived from BL21, T7 phage
How it was run: as §1

ACVR1B = target: T9, ACVR1B (Homo sapiens, UniProt P36896)
T9 construct: host or cells: E. coli (BL21-derived), T7 phage lysate
How it was run: as §1

p38-delta = target: T10, p38-delta (Homo sapiens, UniProt O15264)
T10 construct: host or cells: E. coli host derived from BL21, infected with T7 phage
How it was run: as §1

ABL1(F317L) = target: T11, ABL1(F317L) (Homo sapiens, UniProt P00519, F317L)
T11 construct: host or cells: E. coli (BL21-derived), T7 phage lysate
How it was run: as §1

FGFR1 = target: T12, FGFR1 (Homo sapiens, UniProt P11362)
T12 construct: host or cells: T7 phage in E. coli host derived from BL21
How it was run: as §1

SIK2 = target: T13, SIK2 (Homo sapiens, UniProt Q9H0K1)
T13 construct: host or cells: T7 phage grown in E. coli (BL21-derived)
How it was run: as §1

FLT3(D835Y) = target: T14, FLT3(D835Y) (Homo sapiens, UniProt P36888, D835Y)
T14 construct: host or cells: T7 phage in E. coli host derived from BL21
How it was run: as §1

CAMK2A = target: T15, CAMK2A (Homo sapiens, UniProt Q9UQM7)
T15 construct: host or cells: E. coli host derived from BL21
How it was run: as §1

CDK8 = target: T16, CDK8 (Homo sapiens, UniProt P49336)
T16 construct: host or cells: T7 phage in E. coli host derived from BL21
How it was run: as §1

PKN2 = target: T17, PKN2 (Homo sapiens, UniProt Q16513)
T17 construct: host or cells: T7 phage in E. coli host derived from BL21
How it was run: as §1

CAMK2G = target: T18, CAMK2G (Homo sapiens, UniProt Q13555)
T18 construct: host or cells: E. coli host derived from BL21
How it was run: as §1

IRAK3 = target: T19, IRAK3 (Homo sapiens, UniProt Q9Y616)
T19 construct: host or cells: T7 phage grown in E. coli host derived from BL21
How it was run: as §1

CDC2L2 = target: T20, CDC2L2 (Homo sapiens, UniProt Q9UQ88)
T20 construct: host or cells: T7 phage in E. coli host derived from BL21
How it was run: as §1

TXK = target: T21, TXK (Homo sapiens, UniProt P42681)
T21 construct: host or cells: E. coli host derived from BL21, T7 phage
How it was run: as §1

DDR2 = target: T22, DDR2 (Homo sapiens, UniProt Q16832)
T22 construct: purchased Ambit Biosciences Corp (KinomeScan); host or cells: T7 phage in E. coli host derived from BL21
How it was run: as §1

CLK2 = target: T23, CLK2 (Homo sapiens, UniProt P49760)
T23 construct: host or cells: T7 phage in E. coli host derived from BL21
How it was run: as §1

ROS1 = target: T24, ROS1 (Homo sapiens, UniProt P08922)
T24 construct: host or cells: E. coli host derived from BL21, T7 phage display
How it was run: as §1

NEK1 = target: T25, NEK1 (Homo sapiens, UniProt Q96PY6)
T25 construct: host or cells: T7 phage grown in E. coli host derived from BL21
How it was run: as §1

STK35 = target: T26, STK35 (Homo sapiens, UniProt Q8TDR2)
T26 construct: host or cells: T7 phage grown in E. coli (BL21-derived)
How it was run: as §1

AMPK-alpha2 = target: T27, AMPK-alpha2 (Homo sapiens, UniProt P54646)
T27 construct: host or cells: E. coli (BL21-derived), T7 phage lysate
How it was run: as §1

DMPK = target: T28, DMPK (Homo sapiens, UniProt Q09013)
T28 construct: purchased Ambit Biosciences Corp (KinomeScan); host or cells: T7 phage in E. coli host derived from BL21
How it was run: as §1

PIK3CB = target: T29, PIK3CB (Homo sapiens, UniProt P42338)
T29 construct: host or cells: E. coli host derived from BL21, infected with T7 phage
How it was run: as §1

WEE1 = target: T30, WEE1 (Homo sapiens, UniProt P30291)
T30 construct: host or cells: E. coli host derived from BL21, T7 phage
How it was run: as §1

PFTAIRE2 = target: T31, PFTAIRE2 (Homo sapiens, UniProt Q96Q40)
T31 construct: host or cells: E. coli host derived from BL21, infected with T7 phage
How it was run: as §1

DYRK1B = target: T32, DYRK1B (Homo sapiens, UniProt Q9Y463)
T32 construct: purchased Ambit Biosciences Corp (KinomeScan); host or cells: T7 phage in E. coli host derived from BL21
How it was run: as §1

CIT = target: T33, CIT (Homo sapiens, UniProt O14578)
T33 construct: host or cells: T7 phage in E. coli host derived from BL21
How it was run: as §1

STK33 = target: T34, STK33 (Homo sapiens, UniProt Q9BYT3)
T34 construct: host or cells: T7 phage grown in E. coli (BL21-derived)
How it was run: as §1

SgK085 = target: T35, SgK085 (Homo sapiens, UniProt Q86YV6)
T35 construct: host or cells: T7 phage grown in E. coli (BL21-derived)
How it was run: as §1

T31 sequence (Q96Q40 whole entry): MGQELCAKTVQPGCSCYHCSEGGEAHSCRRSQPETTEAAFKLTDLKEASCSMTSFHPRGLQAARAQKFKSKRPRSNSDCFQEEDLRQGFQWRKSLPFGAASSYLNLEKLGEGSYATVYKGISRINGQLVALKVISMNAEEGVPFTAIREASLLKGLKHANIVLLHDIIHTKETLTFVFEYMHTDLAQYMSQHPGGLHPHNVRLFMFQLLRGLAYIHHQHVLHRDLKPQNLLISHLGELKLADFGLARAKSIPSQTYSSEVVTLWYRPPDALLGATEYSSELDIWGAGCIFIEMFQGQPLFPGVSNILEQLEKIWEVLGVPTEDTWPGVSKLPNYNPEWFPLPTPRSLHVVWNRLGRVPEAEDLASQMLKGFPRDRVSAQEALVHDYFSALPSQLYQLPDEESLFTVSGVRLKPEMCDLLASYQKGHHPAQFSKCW
T7 sequence (Q99683 whole entry): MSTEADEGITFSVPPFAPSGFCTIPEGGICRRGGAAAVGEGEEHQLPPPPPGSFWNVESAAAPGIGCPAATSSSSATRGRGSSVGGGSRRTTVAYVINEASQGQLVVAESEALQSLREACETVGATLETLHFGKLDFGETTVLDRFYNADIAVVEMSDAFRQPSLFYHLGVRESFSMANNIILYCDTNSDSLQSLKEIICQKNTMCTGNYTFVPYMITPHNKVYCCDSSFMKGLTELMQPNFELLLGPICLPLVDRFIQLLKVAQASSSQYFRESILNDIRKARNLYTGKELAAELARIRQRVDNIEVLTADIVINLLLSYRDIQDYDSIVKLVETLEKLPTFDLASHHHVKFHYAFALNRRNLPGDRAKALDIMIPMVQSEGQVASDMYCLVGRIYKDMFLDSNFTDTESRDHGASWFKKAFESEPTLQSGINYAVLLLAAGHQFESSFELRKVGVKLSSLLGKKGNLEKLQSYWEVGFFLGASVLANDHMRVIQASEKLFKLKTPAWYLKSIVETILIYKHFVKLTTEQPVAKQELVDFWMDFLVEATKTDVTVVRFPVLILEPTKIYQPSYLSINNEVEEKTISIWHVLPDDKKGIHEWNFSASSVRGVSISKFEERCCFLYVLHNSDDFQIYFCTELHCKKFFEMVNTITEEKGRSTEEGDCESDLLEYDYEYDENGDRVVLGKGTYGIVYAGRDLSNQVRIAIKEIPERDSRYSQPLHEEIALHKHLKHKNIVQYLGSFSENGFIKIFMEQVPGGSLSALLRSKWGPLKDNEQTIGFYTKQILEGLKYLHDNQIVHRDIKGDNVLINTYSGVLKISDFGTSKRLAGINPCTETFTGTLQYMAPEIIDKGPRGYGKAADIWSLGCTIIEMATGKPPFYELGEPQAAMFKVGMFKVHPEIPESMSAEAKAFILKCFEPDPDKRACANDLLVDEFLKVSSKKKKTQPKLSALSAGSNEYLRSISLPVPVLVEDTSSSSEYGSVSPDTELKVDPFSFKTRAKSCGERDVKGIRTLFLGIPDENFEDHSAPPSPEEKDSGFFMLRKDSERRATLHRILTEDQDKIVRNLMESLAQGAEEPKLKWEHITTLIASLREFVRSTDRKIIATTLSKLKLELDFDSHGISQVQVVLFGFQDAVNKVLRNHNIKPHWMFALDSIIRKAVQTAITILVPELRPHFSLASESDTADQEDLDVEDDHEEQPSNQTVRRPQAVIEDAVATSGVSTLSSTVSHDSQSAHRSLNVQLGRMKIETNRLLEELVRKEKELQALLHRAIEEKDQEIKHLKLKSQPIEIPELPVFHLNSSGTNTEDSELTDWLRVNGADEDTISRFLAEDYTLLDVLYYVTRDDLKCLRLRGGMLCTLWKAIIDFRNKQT
T10 sequence (O15264 whole entry): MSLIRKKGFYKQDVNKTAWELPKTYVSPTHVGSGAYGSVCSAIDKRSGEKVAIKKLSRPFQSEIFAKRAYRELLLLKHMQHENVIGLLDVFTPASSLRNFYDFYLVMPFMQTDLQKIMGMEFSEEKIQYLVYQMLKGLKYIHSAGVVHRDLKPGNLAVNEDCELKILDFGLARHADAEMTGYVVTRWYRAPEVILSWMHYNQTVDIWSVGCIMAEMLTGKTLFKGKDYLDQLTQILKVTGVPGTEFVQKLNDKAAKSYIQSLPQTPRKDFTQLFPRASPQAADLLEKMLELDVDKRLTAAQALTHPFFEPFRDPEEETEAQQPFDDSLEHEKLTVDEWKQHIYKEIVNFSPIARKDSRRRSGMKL
T29 sequence (P42338 whole entry): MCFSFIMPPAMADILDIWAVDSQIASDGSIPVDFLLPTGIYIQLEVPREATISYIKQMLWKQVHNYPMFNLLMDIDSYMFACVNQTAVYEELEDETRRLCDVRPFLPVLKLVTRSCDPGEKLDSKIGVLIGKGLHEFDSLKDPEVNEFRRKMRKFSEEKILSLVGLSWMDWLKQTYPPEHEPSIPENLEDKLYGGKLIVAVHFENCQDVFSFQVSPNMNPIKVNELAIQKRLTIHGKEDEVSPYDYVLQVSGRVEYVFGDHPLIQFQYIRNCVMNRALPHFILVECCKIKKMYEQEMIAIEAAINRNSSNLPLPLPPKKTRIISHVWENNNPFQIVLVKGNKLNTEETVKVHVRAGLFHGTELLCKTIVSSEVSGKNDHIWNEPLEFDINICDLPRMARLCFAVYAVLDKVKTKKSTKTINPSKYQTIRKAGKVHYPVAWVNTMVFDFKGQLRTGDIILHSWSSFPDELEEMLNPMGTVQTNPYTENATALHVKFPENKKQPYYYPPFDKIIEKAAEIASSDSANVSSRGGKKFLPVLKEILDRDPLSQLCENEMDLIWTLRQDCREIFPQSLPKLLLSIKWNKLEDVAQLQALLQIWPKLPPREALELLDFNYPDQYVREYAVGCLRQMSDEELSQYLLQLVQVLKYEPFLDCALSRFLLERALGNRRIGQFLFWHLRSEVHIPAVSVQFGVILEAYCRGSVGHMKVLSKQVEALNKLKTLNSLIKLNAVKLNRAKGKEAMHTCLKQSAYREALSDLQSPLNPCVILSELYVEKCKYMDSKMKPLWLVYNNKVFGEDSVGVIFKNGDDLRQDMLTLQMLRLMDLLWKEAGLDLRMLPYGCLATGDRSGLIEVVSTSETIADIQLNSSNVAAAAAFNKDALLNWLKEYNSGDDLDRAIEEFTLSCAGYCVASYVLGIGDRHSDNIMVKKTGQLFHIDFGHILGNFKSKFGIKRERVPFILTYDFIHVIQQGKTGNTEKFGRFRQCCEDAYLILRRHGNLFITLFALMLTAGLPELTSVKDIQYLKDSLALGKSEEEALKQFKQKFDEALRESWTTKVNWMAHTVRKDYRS
T6 sequence (Q9P286 whole entry): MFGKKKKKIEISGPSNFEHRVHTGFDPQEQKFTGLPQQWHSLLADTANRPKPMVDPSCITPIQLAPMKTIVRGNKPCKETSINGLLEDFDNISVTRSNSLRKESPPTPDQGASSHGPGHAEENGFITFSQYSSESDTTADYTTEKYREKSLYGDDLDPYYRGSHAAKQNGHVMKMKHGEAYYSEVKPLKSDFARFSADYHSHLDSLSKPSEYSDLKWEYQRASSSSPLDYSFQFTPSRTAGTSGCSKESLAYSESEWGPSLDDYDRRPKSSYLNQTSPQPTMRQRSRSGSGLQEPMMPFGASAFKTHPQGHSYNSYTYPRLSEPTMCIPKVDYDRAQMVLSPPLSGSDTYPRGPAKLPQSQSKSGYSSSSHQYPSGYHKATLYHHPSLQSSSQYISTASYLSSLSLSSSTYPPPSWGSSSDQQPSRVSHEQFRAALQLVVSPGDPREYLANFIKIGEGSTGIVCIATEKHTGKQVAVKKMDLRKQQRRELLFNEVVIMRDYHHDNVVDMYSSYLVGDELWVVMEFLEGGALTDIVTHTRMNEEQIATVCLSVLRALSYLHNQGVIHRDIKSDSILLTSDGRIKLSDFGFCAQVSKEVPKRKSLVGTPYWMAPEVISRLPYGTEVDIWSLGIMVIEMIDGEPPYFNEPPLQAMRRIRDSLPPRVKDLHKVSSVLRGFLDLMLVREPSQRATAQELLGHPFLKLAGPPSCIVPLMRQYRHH
T23 sequence (P49760 whole entry): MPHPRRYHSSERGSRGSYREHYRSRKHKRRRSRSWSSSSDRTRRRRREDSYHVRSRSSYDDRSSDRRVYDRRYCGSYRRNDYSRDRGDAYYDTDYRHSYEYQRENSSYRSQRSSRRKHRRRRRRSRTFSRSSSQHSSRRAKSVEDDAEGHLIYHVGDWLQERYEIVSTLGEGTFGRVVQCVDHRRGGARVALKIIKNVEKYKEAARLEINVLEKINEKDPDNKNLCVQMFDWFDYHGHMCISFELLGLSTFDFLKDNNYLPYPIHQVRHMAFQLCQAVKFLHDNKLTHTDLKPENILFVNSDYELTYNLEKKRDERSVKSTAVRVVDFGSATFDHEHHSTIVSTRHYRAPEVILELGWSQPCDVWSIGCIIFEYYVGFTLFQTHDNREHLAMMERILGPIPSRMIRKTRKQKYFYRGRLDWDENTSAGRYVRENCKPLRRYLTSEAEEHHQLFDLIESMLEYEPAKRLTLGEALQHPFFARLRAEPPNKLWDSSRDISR
T35 sequence (Q86YV6 whole entry): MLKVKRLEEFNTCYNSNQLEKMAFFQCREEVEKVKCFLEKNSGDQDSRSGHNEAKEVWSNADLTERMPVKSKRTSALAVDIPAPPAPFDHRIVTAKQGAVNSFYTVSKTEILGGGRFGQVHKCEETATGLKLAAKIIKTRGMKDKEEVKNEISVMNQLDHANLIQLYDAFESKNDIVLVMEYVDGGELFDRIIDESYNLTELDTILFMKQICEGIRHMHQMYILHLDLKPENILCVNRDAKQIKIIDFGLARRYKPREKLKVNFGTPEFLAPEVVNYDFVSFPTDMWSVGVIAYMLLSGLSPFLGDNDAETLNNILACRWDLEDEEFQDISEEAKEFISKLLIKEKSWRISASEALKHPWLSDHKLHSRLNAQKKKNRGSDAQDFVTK

## C#Cc1cccc(Nc2ncnc3cc(OC)c(OCCCN4CCOCC4)cc23)c1 [NRC-2694, N-(3-ethynylphenyl)-7-methoxy-6-[3-(4-morpholinyl)propoxy]-4-quinazolinamine]
SgK110
  remaining binding at 10 µM: 83%
ALK
  remaining binding at 10 µM: 10%
PRKD3
  remaining binding at 10 µM: 7.2%
FRK
  remaining binding at 10 µM: 10%
GSK3A
  remaining binding at 10 µM: 75%
PAK7
  remaining binding at 10 µM: 63%
ASK1
  remaining binding at 10 µM: 100%
ULK3
  remaining binding at 10 µM: 62%
ACVR1B
  remaining binding at 10 µM: 63%
p38-delta
  remaining binding at 10 µM: 100%
ABL1(F317L)
  remaining binding at 10 µM: 33%
FGFR1
  remaining binding at 10 µM: 64%
SIK2
  remaining binding at 10 µM: 21%
FLT3(D835Y)
  remaining binding at 10 µM: 9.4%
CAMK2A
  remaining binding at 10 µM: 63%
CDK8
  remaining binding at 10 µM: 100%
PKN2
  remaining binding at 10 µM: 31%
CAMK2G
  remaining binding at 10 µM: 58%
IRAK3
  remaining binding at 10 µM: 25%
CDC2L2
  remaining binding at 10 µM: 37%
TXK
  remaining binding at 10 µM: 39%
DDR2
  remaining binding at 10 µM: 76%
CLK2
  remaining binding at 10 µM: 64%
ROS1
  remaining binding at 10 µM: 46%
NEK1
  remaining binding at 10 µM: 66%
STK35
  remaining binding at 10 µM: 52%
AMPK-alpha2
  remaining binding at 10 µM: 61%
DMPK
  remaining binding at 10 µM: 6.8%
PIK3CB
  remaining binding at 10 µM: 100%
WEE1
  remaining binding at 10 µM: 74%
PFTAIRE2
  remaining binding at 10 µM: 71%
DYRK1B
  remaining binding at 10 µM: 66%
CIT
  remaining binding at 10 µM: 5%
STK33
  remaining binding at 10 µM: 43%
SgK085
  remaining binding at 10 µM: 84%
